Our source for the IC50 values is patent US20060205673A1, “2-Amino-3-hydroxy-4-tert-leucyl-amino-5-phenyl-pentanoic acid amide derivatives” (priority 2000, published 2006).

In general, IC50 refers to the midpoint of a concentration-inhibition curve. The low end stands for inhibition by little substance, the high end for a need for much substance.

Structures are written as SMILES.

This test deals with T1, purified human placenta 20S proteasome (Homo sapiens, UniProt P28074).
T1 construct: 1 μl purified human placenta 20S proteasome; tissue Diabetes Forschungsinstitut, Düsseldorf, Germany; host or cells: human placenta
Kind of test: Inhibition of the chymotrypsin-like activity of the 20S proteasome (Suc-LLVY-AMC hydrolysis). The test is classed as biochemical. The conditions noted are these: Suc-LLVY-AMC substrate, 60 min preincubation at room temperature, Table 1. The text has this: It is based on the hydrolysis of the fluorogenic peptide Suc-LLVY-AMC (Succinyl-leucine-leucine-valine-tyrosine-7-amino-4-methyl-coumarin), which is cleaved exclusively at the Y-AMC bond by the 20S proteasome. Hydrolysis of this peptide is accompanied by an increase in fluorescence intensity [λex (excitation wavelength): 355 nm; λem (emission wavelength): 460 nm] due to release of the internally quenched […] fluorescence that accompanies diffusion apart of the hydrolysis product Suc-LLVY.
2 μl of a 1 mM solution of a test compound in DMSO (dimethylsulfoxide, 20 μM final concentration in the well) are preincubated for 60 min at room temperature in black 96-well microtiter plates together with a mixture of 1 μl purified human placenta 20S proteasome (Diabetes Forschungsinstitut, Düsseldorf, Germany; about 100 ng proteasome, depending on the proteasome preparation) and 47 μl buffer-Ca [5 mM CaCl2, 20 mM Tris/HCl (Tris-(hydroxymethyl)-amino-methane hydrochloride) pH 8.0]. 3 μl of a 2.67 mM solution of Suc-LLVY-AMC (Bachem, Switzerland) in DMSO (80 μM final concentration in the well) and 47 μl buffer-Ca are mixed and added. The resulting mixture is incubated for 3-24 h at 37° C. If desired, proteolysis of the substrate can be stopped by addition of 50 μl stop solution (100 mM monochloroacetic acid, 130 mM NaOH, 100 mM acetic acid, pH=4.3). The fluorescence is monitored with a FLUOROSKAN ASCENT™ microtiter plate reader.
To each measure series two control experiments have to be carried out:
1.) 0% value: 2 μl DMSO are used in the above described assay instead of 2 μl of a 1 mM solution of a test compound in DMSO and 48 μl buffer-Ca instead of a mixture of 47 μl buffer-Ca and 1 μl purified proteasome.
2.) 100% value: in the above described assay 2 μl DMSO are used instead of 2 μl of a 1 mM solution of the test compound in DMSO.
The IC50 value is defined as that concentration of a compound at which the remaining activity is 50%.

As for `COc1ccc(CNC(=O)[C@@H](NC(=O)[C@H](NCc2ccc(N(C)C)cc2)[C@H](O)[C@H](Cc2ccccc2)NC(=O)[C@@H](NC(=O)Cc2cccc3ccccc23)C(C)(C)C)C(C)C)c(O)c1` [Example 16, (2R,3R,4S)-2-(4-Dimethylamino-benzylamino)-4-[(S)-3,3-dimethyl-2-(2-naphthalen-1-yl-acetylamino)-butyrylamino]-3-hydroxy-5-phenyl-pentanoic acid [(S)-1-(2-hydroxy-4-methoxy-benzylcarbamoyl)-2-methyl-propyl]-amide], the IC50 turned out to be 160 nM.
